Source: publication PMC6594577, “Identifying small molecule probes of ENTPD5 through high throughput screening” (PLoS ONE, 2019)

Key:
[1] = target: T1, B.ENTPD5 (human ENTPD5 44–428) (Homo sapiens, UniProt O75356); test: coupled enzyme (ENTPD5/UMPK/luciferase) HTS assay; assay type: biochemical; details: for IC50: compounds at 5, 10, 20 and 40 μM, coupled enzyme HTS assay; for inhibition at 20 µM: HTS, 20 μM compound, duplicate, read-out: Percent ENTPD5 inhibition
T1 construct: bacterial codon-optimized human ENTPD5 44–428 (B.ENTPD5); His8 (C); made in house; host or cells: E. coli C41(DE3)
T1 sequence (O75356 44-428): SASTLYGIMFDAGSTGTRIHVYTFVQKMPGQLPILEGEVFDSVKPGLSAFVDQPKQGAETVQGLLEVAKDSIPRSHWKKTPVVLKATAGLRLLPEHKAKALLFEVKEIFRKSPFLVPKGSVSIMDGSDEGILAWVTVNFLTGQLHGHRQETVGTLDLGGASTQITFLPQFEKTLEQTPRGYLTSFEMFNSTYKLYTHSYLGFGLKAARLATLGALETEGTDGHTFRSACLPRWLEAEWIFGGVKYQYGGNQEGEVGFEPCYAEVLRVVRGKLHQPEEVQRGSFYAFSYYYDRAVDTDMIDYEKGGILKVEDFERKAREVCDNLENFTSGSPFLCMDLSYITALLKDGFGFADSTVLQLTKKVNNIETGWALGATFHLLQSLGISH
Procedure: Stocks of purified B.ENTPD5, UMPK, and luciferase were diluted to 0.4 mg/mL, 1.2 mg/mL, 4.5 mg/mL, respectively, in 250 mM NaCl, 25 mM Tris-HCl pH 8.5, 5 mM MgCl2, 0.1 mg/mL BSA, and 5 mM DTT and flash frozen. To prepare enzyme mix solution for HTS, ENTPD5 (1 ng/μL final concentration) and UMPK (3.5 ng/μL) were diluted in HTS buffer (250 mM NaCl, 25 mM Tris-HCl pH 7.7, 5 mM MgCl2, 5 mM DTT, 0.1 mg/mL BSA, and 0.01% Triton X-100). An ENTPD5 null mix was made as above without ENTPD5 to provide maximal signal mimicking 100% inhibition. Substrate mix solution consisted of ATP (625 μM) and UDP (150 μM) in HTS buffer. Developer solution consisted of Luciferase (50 ng/μL) and D-luciferin (1.6 mM) in HTS buffer. All solutions were stored at 4°C, and equilibrated to room temperature prior to screening. All steps of ENTPD5 HTS were performed at room temperature in duplicate 384-well plates. For each run, 40 μL of enzyme solution (or ENTPD5 null mix) was added to each well of a 384 well plate. 0.1 μL of 10 mM compound (in 100% DMSO) from a 25,000 subset of the Chembridge DiverSet library or DMSO alone were added to wells by pin tool (V&P Scientific). Following a 10-minute incubation, the reaction was initiated with 10 μL of substrate mix (final concentrations: 40 ng/50 μL ENTPD5, 140 ng/50 μL UMPK, 125 μM ATP, 30 μM UDP, 20 μM test compound). Assay plates were shaken at 1500 rpm for 30 seconds and then incubated for 1h. Following incubation, 10 μL of developer solution was added to each well (final concentrations: 500 ng/60 μL luciferase, 266 μM D-luciferin). The plate was shaken for 30 seconds and incubated for 30 minutes. Luminescence readings were performed on a Tecan Infinite […] with automatic attenuation settings and 100 ms integration time. Hits and hit analogs were (re)purchased from Chembridge for SAR studies. Compounds were assayed at 5 μM, 10 μM, 20 μM, and 40 μM using the assay described above. To discover ENTPD5 inhibitors, a coupled enzyme assay was developed for high-throughput screening. The ENTPD5 reaction (UDP ➔ UMP + Pi) was coupled with uridine monophosphate kinase's (UMPK) reaction with UMP (UMP + ATP ➔ UDP + ADP) to create a futile catalytic cycle consuming ATP (Fig 3A). After one hour, the residual ATP was measured with firefly luciferase. UMPK concentrations were chosen to ensure ENTPD5, not UMPK, was rate-limiting. The ATP concentration was chosen to maximize signal with no ENTPD5 present, and the reaction time was optimized to remain in the linear range of the assay. Initial UDP concentration was chosen to allow for multiple turnover events on a single molecule in the cycle. Due to the availability of higher yields of the bacterially produced enzyme, B.ENTPD5 was used for HTS and subsequent structure activity relationship studies. 21,000 compounds were screened in duplicate at 20 μM. The average Z' value of the 132-plate screen was 0.73, indicating a robust assay. Five compounds producing >25% reproducible inhibition of ENTPD5 activity were selected for further analysis (0.02% hit rate) (Fig 3B and 3C).

I.ENTPD5 = target: T2, I.ENTPD5 (Homo sapiens, UniProt O75356); test: Malachite Green (MG) assay for free phosphate; assay type: biochemical
T2 construct: His8 (C); made in house; host or cells: Hi-5 insect cells (baculovirus amplified in SF9)
T2 sequence (O75356 44-428): T1 sequence (O75356 44-428)
Procedure: Malachite Green (MG) assay for free phosphate was used to directly test ENTPD5 activity. Standard curves for each preparation of malachite green were generated using known amounts of free phosphate. Reactions were carried out at room temperature in 1-mL cuvettes and OD 630 nm measurements were performed on a Nanodrop 2000c. ENTPD5 assays were initiated by adding UDP (100 μM final concentration) to a cuvette containing 800 μL of ENTPD5 (10 ng) in reaction buffer (250 mM NaCl, 5 mM MgCl2, 25 mM Tris-HCl pH 8.5). After 5 minutes, the reaction was quenched with 200 μL of MG buffer (13.1% (v/v) Concentrated sulfuric acid, 2.64 mM malachite green, 1.4% (w/v) ammonium molybdate, and 0.17% (v/v) Tween 20) and mixed by pipet. The OD 630 nm was measured after an additional 5-minute incubation. IC50 values were calculated by GraphPad Prism 6 using sigmoidal interpolation model with 95% confidence intervals. Using I.ENTPD5, the five hits compounds were validated in the malachite green (MG) assay, which directly measures free phosphate, a product of ENTPD5 activity.

[2] = test system: O-glycan levels in LNCaP cells; test: Western blot for total O-glycosylation, LNCaP; assay type: cell-based; details: 10 μM, 24h, immunoblot
Procedure: (§1) LNCaP, DU145, PC3, and RWPE-1 cells were treated with 10 μM compound or DMSO control. 24h post-treatment, cells were washed with ice cold PBS, scraped, pelleted and stored at -80°C until use. Frozen cell pellets were lysed with lysis buffer consisting of 20 mM HEPES pH. 7.4, 150 mM NaCl, 1% Triton X-100, 1 mM EGTA, 1 mM EDTA, 10 mM sodium pyrophosphate, 100 mM NaF, 5 mM iodoacetic acid, 20 nM okadaic acid, 0.2 mM phenylmethylsulfonyl flouride (PMSF), and complete protease inhibitor cocktail tablets (Roche Diagnostics). Samples containing 50 μg of protein were suspended in SDS loading buffer, separated on 4–12% SDS polyacrylamide gels (GenScript #M41215) and electrotransferred to PVDF membranes (Millipore Immobilon-FL #IPFL00010). Precision Plus Protein Standards all blue (Bio-Rad 161–0373) were included as molecular weight markers. Immunoblotting was performed using standard methods, with TBS-T and TBS-T with 5% BSA as the wash and blocking/primary antibody dilution solutions, respectively. Total protein was measured with Ponceau-S staining prior to probing with antibodies. Membranes were incubated overnight at 4°C with primary antibodies diluted 1:1000 unless noted otherwise. […] Western blot quantification was normalized to total protein levels and analyzed in ImageStudio (LI-COR).

[3] = test system: O-glycan levels in DU145 cells; test: Western blot for total O-glycosylation, DU145; assay type: cell-based; details: DU145, 10 μM, 24h, immunoblot
Procedure: as §1

LNCaP cells = test: Growth inhibition assay, LNCaP; assay type: cell-based; details: Homo sapiens, 48 h, 48h treatment, cell count normalized to DMSO
Procedure: LNCaP (ATCC CFL-1740), DU-145 (ATCC HTB-81), and PC3 (ATCC CRL-1435) cell lines were cultivated in a humid atmosphere (5% CO2, 37°C) using RPMI 1640 with L-glutamine (10-040-CV Corning) media supplemented with 10% FBS (SH30910.03 Hyclone) and 1x penicillin-streptomycin solution (Invitrogen). RWPE-1 (ATCC CRL-11609) was cultivated in a humid atmosphere (5% CO2, 37°C) using Keratinocyte Serum Free Medium (K-SFM Kit 17005–042 GIBCO) supplemented with bovine pituitary extract, epidermal growth factor (provided with K-SFM Kit), and 1x penicillin-streptomycin solution (Invitrogen). All cell lines were analyzed by STR (Short Tandem Repeat) and confirmed to match to corresponding STR profile data from the Global Bioresource Center ATCC or ExPASy Cellosaurus database. All cell lines were verified to be mycoplasma free.
5,000 cells were plated on day 0 in a 96-well plate. On day 1, before treatment, each well was imaged and direct cell counting was performed using a Celigo S (Nexcelom) imager and automatic cell counting software provided with the instrument. Compounds were added to final concentrations of 0.15 μM- 20 μM. 48 hours after treatment, wells were re-imaged and counted using the pre-treatment counting procedure. Growth was reported as the fold increase over the baseline measurement and normalized to DMSO controls. Experiments were performed in triplicate, in three separate experiments. […]

[4] = substrate UDP, purified I.ENTPD5, Michaelis-Menten

Row | SMILES | IC50 [1] [µM] | inhibition at 20 µM [1] [%] | other results
1 | O=S(=O)(Nc1ccc(O)c(-c2c(O)ccc3ccccc23)c1)c1ccccc1 [Compound 2c] | 6.8 ± 1 |  | 
2 | CCC(=O)N1c2ccccc2C(N(C(=O)c2ccccc2)c2ccccc2)CC1C (stereo not drawn) [Compound 3] |  | 47 | 
3 | O=S(=O)(Nc1ccc(O)c(-c2c(O)ccc3ccccc23)c1)c1ccc(Cl)cc1 [Compound 2a] | 6.7 ± 0.7 | 35 | inhibition of I.ENTPD5 (hit validation) (I.ENTPD5; MG assay): dose-dependent inhibition
4 | O=S(=O)(Nc1ccc(O)c(-c2c(O)ccc3ccccc23)c1)c1ccc(Br)cc1 [Compound 2g] | 8.3 ± 1 |  | 
5 | O=C1NC(c2ccccc2OCc2ccccc2)Nc2ccccc21 (stereo not drawn) [Compound 4] |  | 28 | inhibition of I.ENTPD5 (hit validation) (I.ENTPD5; MG assay): dose-dependent inhibition
6 | CC(C)(C)c1ccc(S(=O)(=O)Nc2ccc(O)c(-c3c(O)ccc4ccccc34)c2)cc1 [Compound 2f] |  |  | O-glycan level [2]: inability of compound 2f to reduce O-glycan levels; O-glycan level [3]: inability of compound 2f to reduce O-glycan levels; IC50 (I.ENTPD5; MG assay, expanded concentration range, 100 μM UDP): 1.54 µM; EC50 (LNCaP cells): > 10 µM
7 | Cc1ccc(S(=O)(=O)Nc2ccc(O)c(-c3c(O)ccc4ccccc34)c2)cc1 [Compound 2d] | 7.1 ± 1.6 |  | 
8 | CCc1ccc(S(=O)(=O)Nc2ccc(O)c(-c3c(O)ccc4ccccc34)c2)cc1 [Compound 2e] | 4.3 ± 2.2 |  | 
9 | Cc1ccc(S(=O)(=O)Nc2cc(-c3c(O)ccc4ccccc34)c(O)c3ccccc23)cc1 [Compound 2h] | > 100 |  | 
10 | O=c1ccn([C@@H]2O[C@H](COP(=O)(O)OP(=O)(O)O)[C@@H](O)[C@H]2O)c(=O)[nH]1 [UDP, reference compound] |  |  | Km (I.ENTPD5; [4]): 480 ± 111 µM; kcat (I.ENTPD5; [4]): 783 ± 68 s⁻¹
11 | Cc1cc(C)c(C)c(S(=O)(=O)Nc2ccc(O)c(-c3c(O)ccc4ccccc34)c2)c1C [Compound 2b] | 3.7 ± 0.4 | 48 | inhibition of I.ENTPD5 (hit validation) (I.ENTPD5; MG assay): dose-dependent inhibition
12 | O=S(=O)(Nc1cc(-c2c(O)ccc3ccccc23)c(O)c2ccccc12)c1ccc(Cl)cc1 [Compound 2i] | > 100 |  | 
